Assay results taken from paper doi:10.1101/2022.11.11.516135v3 (biorxiv, 2024).

Biological target: G3BP1-NTF2 (residues 1-139); NTF2-like domain of G3BP1 (Homo sapiens, UniProt Q13283)
Experiment: biochemical
Type: binding

Chain of G3BP1-NTF2 (residues 1-139); NTF2-like domain of G3BP1 (Q13283 1-139): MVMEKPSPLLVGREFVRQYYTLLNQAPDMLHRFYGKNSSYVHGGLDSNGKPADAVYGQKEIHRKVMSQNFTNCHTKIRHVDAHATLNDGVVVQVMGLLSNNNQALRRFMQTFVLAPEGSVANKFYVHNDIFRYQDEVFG

Row | Compound | Kd [µM]
1 | CN1C[C@H](C(=O)N[C@]2(C)O[C@@]3(O)[C@@H]4CCCN4C(=O)[C@H](Cc4ccccc4)N3C2=O)C[C@@H]2c3cccc4[nH]cc(c34)C[C@H]21 [DHD, Dihydroergotamine] | 54
2 | O=C1NCN(c2ccccc2)C12CCN(CCCC(c1ccc(F)cc1)c1ccc(F)cc1)CC2 [FLU, Fluspiriline] | 71.4
3 | CNC(=O)c1c(F)cccc1Nc1nc(Nc2cc3c(cc2OC)CCN3C(=O)CN(C)C)nc2[nH]ccc12 [GSK, GSK1838705A] | 98
4 | COc1ccc(Br)cc1S(=O)(=O)NC(=O)/C=C/c1ccccc1Cc1ccc2ccccc2c1 [L-7, L-798106] | 18.7
5 | CC[C@H](NC(=O)c1c(C)c(-c2ccccc2)nc2ccccc12)c1ccccc1 [SB2, SB_222200] | 66
